US12349706B2, “Compositions and methods related to excipients and cannabinoid formulations” (Natural Extraction Systems, LLC, priority 2020, dated 2025)

Columns and labels:
Type in all cases: in vivo
[1] = test system: Sabra mice; assay: Zymosan-induced inflammatory paw swelling, measured with a caliper; conditions: zymosan in left hind paw, paw swelling by caliper, 300 milligrams formulation (cannabinoid in propylene glycol, xylitol solid phase) in 15 milliliters water, oral gavage
Experimental: (§1) The activity of formulations set forth in this disclosure is assayed in Sabra mice. 300 milligrams of a formulation is combined with 15 milliliters of water and administered by oral gavage. Each formulation comprises a liquid phase that contains propylene glycol and a solid phase that contains xylitol. The liquid phase contains a cannabinoid selected from CBD, THC, Δ8-THC, CBG, CBDV, THCV, Δ8-THCV, CBGV, CBC, CBN, tetrahydrocannabiphorol, perrottetinene, nabilone, parahexyl, HUM-217, and HU-331, which is dissolved in the propylene glycol, and controls lack any cannabinoid.
(§2) Zymosan is injected into the left hind paws of each mouse to induce pain, inflammation, and tumor necrosis factor (“TNF”) signaling. Inflammatory paw swelling is measured with a caliper. Pain is measured with a Von Frey hair aesthesiometer. Plasma TNF is measured […].

[2] = test system: Sabra mice; assay: Zymosan-induced paw pain, Von Frey hair aesthesiometer; conditions: zymosan in left hind paw, 300 milligrams formulation (cannabinoid in propylene glycol, xylitol solid phase) in 15 milliliters water, oral gavage
Experimental: as §1, §2

[3] = test system: tumor necrosis factor (“TNF”) signaling; assay: Plasma TNF after zymosan injection, measured by HPLC; conditions: Sabra mice, zymosan in left hind paw, 300 milligrams formulation (cannabinoid in propylene glycol, xylitol solid phase) in 15 milliliters water, oral gavage
Experimental: as §1, §2

SMILES	reduction in inflammation relative to controls [1]	reduction in pain relative to controls [2]	reduction in TNF signaling relative to controls [3]
CCCCCc1cc(O)c2c(c1)OC(C)(C)c1ccc(C)cc1-2 [CBN]	modest reduction	modest reduction	modest reduction
C=C(C)[C@@H]1CCC(C)=C[C@H]1c1c(O)cc(CCCCC)cc1O [CBD]	robust reduction	robust reduction	robust reduction
C=C(C)[C@@H]1CCC(C)=C[C@H]1c1c(O)cc(CCC)cc1O [CBDV]	robust reduction	robust reduction	robust reduction
CC1=C[C@H]2c3c(O)cc(CCc4ccccc4)cc3OC(C)(C)[C@H]2CC1 [perrottetinene]	modest reduction	modest reduction	modest reduction
CCCc1cc(O)c2c(c1)OC(C)(C)[C@@H]1CC=C(C)C[C@@H]21 [Δ8-THCV]	modest reduction	modest reduction	modest reduction
CCCCCCc1cc(O)c2c(c1)OC(C)(C)C1=C2CC(C)CC1 (stereo not drawn) [parahexyl]	modest reduction	modest reduction	modest reduction
CCCc1cc(O)c2c(c1)OC(C)(C)[C@@H]1CCC(C)=C[C@@H]21 [THCV]	modest reduction	modest reduction	modest reduction
CCCCCc1cc(O)c2c(c1)OC(C)(C)[C@@H]1CCC(C)=C[C@@H]21 [THC]	modest reduction	modest reduction	modest reduction
CCCCCc1cc(O)c2c(c1)OC(C)(C)[C@@H]1CC=C(C)C[C@@H]21 [Δ8-THC]	modest reduction	modest reduction	modest reduction
CCCCCCCc1cc(O)c2c(c1)OC(C)(C)[C@@H]1CCC(C)=C[C@@H]21 [tetrahydrocannabiphorol]	modest reduction	modest reduction	modest reduction
CCCCCCC(C)(C)c1cc(O)c2c(c1)OC(C)(C)C1CCC(=O)CC21 (stereo not drawn) [nabilone]	modest reduction	modest reduction	modest reduction
CCCCCc1cc(O)c2c(c1)OC(C)(CCC=C(C)C)C=C2 (stereo not drawn) [CBC]	no detectable effect	no detectable effect	no detectable effect
CCCCCc1cc(O)c(C/C=C(\C)CCC=C(C)C)c(O)c1 [CBG]	modest reduction	modest reduction	modest reduction
C=C(C)[C@@H]1CCC(C)=C[C@H]1C1=C(O)C(=O)C(CCCCC)=CC1=O [HU-331]	robust reduction	robust reduction	robust reduction
